Results as given in article PMC11013945, “Antiprotozoal Activity of Plants Used in the Management of Sleeping Sickness in Angola and Bioactivity-Guided Fractionation of Brasenia schreberi J.F.Gmel and Nymphaea lotus L. Active against T. b. rhodesiense” (Molecules, 2024).
≈ marks a conversion by molar mass, not a printed value.

Key:
leishmania = system: leishmania; set-up: method as in PMID 16643059; details: cited from earlier work
L6 cells = test: Cytotoxicity against L6 cells; assay type: cell-based; details: Rattus norvegicus, Table 4, pure compounds
Method: (§1) In vitro growth inhibitory activity of the extracts and pure compounds against T. cruzi (intracellular amastigote forms grown in L6 rat myoblasts), L. donovani (axenic amastigote forms in acidic medium or intracellular amastigotes in mouse primary macrophages), and P. falciparum (erythrocytic stages in culture) was determined as described previously. Testing against intracellular L. donovani was performed as follows: mouse peritoneal macrophages (4 × 104 in 100 µL RPMI 1640 medium with 10% heat-inactivated FBS) in 96-well plates were infected with amastigotes (2 × 105 in 100 µL medium). After 24 h, the medium was exchanged twice to remove free amastigotes. Test compounds were added, and the plates incubated for 96 h at 37 °C under 5% CO2. Then, the medium was removed, the cells were fixed with 50 µL 4% formaldehyde, and stained with 5 µM DRAQ5. Nine images were taken per well on a ImageXpress XLS (MD) microscope (Molecular Devices, San Jose, CA, USA) using a 20× air objective (635 nm excitation: 690/50 emission) and analyzed with a script developed on Meta Xpress (MD). Cytotoxicity against L6 cells was assessed by using a similar protocol as outlined for IC50 determination with T. b. rhodesiense, except that rat skeletal myoblasts (L6 cells) were used. The medium was RPMI 1640 medium supplemented with 1% L-glutamine (200 mM) and 10% fetal bovine serum. Reference compounds were melarsoprol for T. b. rhodesiense, benznidazole for T. cruzi, miltefosine for L. donovani, chloroquine and artesunate for P. falciparum, and podophyllotoxin for L6 cells.

T. cruzi = test: In vitro growth inhibition of T. cruzi intracellular amastigotes grown in L6 rat myoblasts; assay type: cell-based, Trypanosoma cruzi; details: Table 4, pure compounds; for IC50: Trypanosoma cruzi, Myoblast, mean of two independent experiments
Method: as §1

[1] = system: T. b. rhodesiense STIB 900; test: IC50 determination against T. b. rhodesiense, serial dilutions, Alamar blue; assay type: cell-based, Trypanosoma brucei rhodesiense; details: Table 4, pure compounds; for IC50: Trypanosoma brucei
epimastigote T. cruzi = system: epimastigote T. cruzi; set-up: method as in PMID 27347554; details: read-out: IC50 against epimastigote T. cruzi; cited from earlier work
P. falciparum [2] = test: In vitro growth inhibition of P. falciparum erythrocytic stages; assay type: cell-based, Plasmodium falciparum; details: Table 4, pure compounds; for IC50: Plasmodium falciparum
Method: as §1

L. donovani = test: In vitro growth inhibition of L. donovani axenic amastigotes; assay type: cell-based, Leishmania donovani; details: Table 4, pure compounds; for IC50: Leishmania donovani, axenic amastigote
Method: as §1

[3] = system: sn-glycerol-3-phosphate oxidase system of T. b. brucei; details: in vitro; cited from earlier work
P. falciparum [4] = system: P. falciparum; set-up: method as in PMID 29333044; details: isolated from Alectryon serratus leaves; cited from earlier work
[5] = system: intracellular L. donovani; test: Intramacrophage assay, intracellular L. donovani amastigotes in mouse peritoneal macrophages; assay type: cell-based; details: Leishmania donovani, Macrophage
Method: as §1, with “Reference compounds were melarsoprol for T. b. rhodesiense, benznidazole for T. cruzi, miltefosine for L. donovani, chloroquine and artesunate for P. falciparum, and podophyllotoxin for L6 cells.” left out

[6] = system: Trypanosoma brucei rhodesiense STIB900; test: Growth inhibition (GI) of T. b. rhodesiense bloodstream forms at a single concentration, Alamar blue; assay type: cell-based; details: read-out: Growth inhibition (%)
Method: A total of 122 extracts were prepared from different parts of the nine plant species. Each plant part was extracted consecutively with hexane, dichloromethane, ethanol, methanol, and water. The extracts were tested for their in vitro growth inhibition (GI) activity against bloodstream forms of Trypanosoma brucei rhodesiense STIB900, our reference strain for drug testing against African trypanosomes at a concentration of 20 µg/mL. […] A detailed description of the plant species, the parts extracted, solvent, extraction yield, and percentage of growth inhibition (GI%) is given in Supplementary Table S1.
Growth inhibition (GI) activity against T. b. rhodesiense STIB 900 was determined as follows: in a 96-well microtiter plate, 50 µL of HMI-9 medium supplemented with 15% heat-inactivated horse serum were added to each well. A total of 10 µL of the plant extract stock solution was added to each well. Then, 50 µL of bloodstream-form trypanosomes were added, adjusted with a cell counter (CASY, Schärfe System, Germany) to 4 × 10^4 cells/mL. […] Then, the plate was read with a Spectramax Gemini XS microplate fluorometer (Molecular Devices Corporation, Sunnyvale, CA, USA) using an excitation wavelength of 530 nm and an emission wavelength of 590 nm. Fluorescence was expressed as percentage of the untreated control. […]

[7] = mean of two independent experiments

| SMILES | IC50 (T. cruzi) [µg/mL] | IC50 (P. falciparum [2]) [µg/mL] | P. falciparum IC50 (P. falciparum [2]) [µg/mL] | IC50 (L. donovani) [µg/mL] | IC50 [5] [µg/mL] | IC50 against leishmania (leishmania) [µg/mL] | IC50 (L6 cells) [µg/mL] | T. cruzi SI (T. cruzi) | T. b. rhodesiense SI [1] | T. b. rhodesiense IC50 [1, 7] [µg/mL] | IC50 [1, 7] [µg/mL] | IC50 (epimastigote T. cruzi) [µM] | P. falciparum SI (P. falciparum [2]) | L. donovani SI (L. donovani) | inhibition of sn-glycerol-3-phosphate oxidase system [3] | IC50 against P. falciparum (P. falciparum [4]) [µg/mL] | inhibition at 0.072 µg/mL [6] [%] |
| --- | --- | --- | --- | --- | --- | --- | --- | --- | --- | --- | --- | --- | --- | --- | --- | --- | --- |
| C=CCCC/C=C\C/C=C\CCCCCCCc1cc(O)cc(O)c1 [5-heptadeca-8′Z,11′Z,16-trienylresorcinol] |  |  |  |  |  | 3.6 (≈ 10.5 µM) |  |  |  |  |  |  |  |  |  |  |  |
| O=C(OC[C@@H]1O[C@H](OC(=O)c2cc(O)c(O)c(O)c2)[C@@H](OC(=O)c2cc(O)c(O)c(O)c2)[C@H](OC(=O)c2cc(O)c(O)c(O)c2)[C@H]1OC(=O)c1cc(O)c(O)c(O)c1)c1cc(O)c(O)c(O)c1 [Pentagalloyl-β-glucopyranoside (5), 1,2,3,4,6 pentagalloyl-β-glucopyranoside] | 44 (≈ 46.8 µM) | 6.7 (≈ 7.12 µM) |  | 15 (≈ 15.9 µM) |  |  | 21 (≈ 22.3 µM) | 0.5 | 1.0 |  | 20 (≈ 21.3 µM) |  | 3.1 | 1.4 |  |  |  |
| CC/C=C\C/C=C\C/C=C\CCCCCCCc1cc(O)cc(O)c1 [Resorcinol-alkyl (8), 5-[(8Z,11Z,14Z)-heptadeca-8,11,14-trienyl] resorcinol] | 9.1 (≈ 26.6 µM) |  |  | 2.5 (≈ 7.3 µM) | > 11 |  | 13 (≈ 38 µM) | 1.4 | 2.5 |  | 5.3 (≈ 15.5 µM) |  |  | 5.2 |  |  |  |
| Nc1nc(N)nc(Nc2ccc([As]3SCC(CO)S3)cc2)n1 (stereo not drawn) [melarsoprol] |  |  |  |  |  |  |  |  |  |  |  |  |  |  |  |  | 98.4 |

Now from value to compound, other results behind:

| IC50 (T. cruzi) [µg/mL] | IC50 (P. falciparum [2]) [µg/mL] | P. falciparum IC50 (P. falciparum [2]) [µg/mL] | IC50 (L. donovani) [µg/mL] | IC50 [5] [µg/mL] | SMILES | IC50 against leishmania (leishmania) [µg/mL] | IC50 (L6 cells) [µg/mL] | T. cruzi SI (T. cruzi) | T. b. rhodesiense SI [1] | T. b. rhodesiense IC50 [1, 7] [µg/mL] | IC50 [1, 7] [µg/mL] | IC50 (epimastigote T. cruzi) [µM] | P. falciparum SI (P. falciparum [2]) | L. donovani SI (L. donovani) | inhibition of sn-glycerol-3-phosphate oxidase system [3] | IC50 against P. falciparum (P. falciparum [4]) [µg/mL] | inhibition at 0.072 µg/mL [6] [%] |
| --- | --- | --- | --- | --- | --- | --- | --- | --- | --- | --- | --- | --- | --- | --- | --- | --- | --- |
| 16 (≈ 80.7 µM) | 2.1 (≈ 10.6 µM) | 3.0 | 6.8 (≈ 34.3 µM) |  | CCOC(=O)c1cc(O)c(O)c(O)c1 [Ethyl gallate (4), ethyl gallate] |  | 15 (≈ 75.7 µM) | 0.9 | 25 | 0.6 | 0.5 (≈ 2.52 µM) | > 100 | 4.9 | 2.2 |  |  |  |
| 66 (≈ 388 µM) | > 10 |  | 56 (≈ 329 µM) |  | O=C(O)c1cc(O)c(O)c(O)c1 [Gallic acid (1), gallic acid] |  | 16 (≈ 94.1 µM) | 0.2 | 34 |  | 0.5 (≈ 2.94 µM) | > 100 |  | 0.3 | inhibited | 0.0013 (≈ 0.00764 µM) |  |
| 12 (≈ 25 µM) |  |  | 53 (≈ 110 µM) |  | O=c1c(O)c(-c2ccc(O)c(O)c2)oc2c(O)c(O[C@@H]3O[C@H](CO)[C@@H](O)[C@H](O)[C@H]3O)cc(O)c12 [Gossypetin-7-O-β-glucopyranoside (6), gossypetin-7-O-β-glucopyranoside] |  | 8.9 (≈ 18.5 µM) | 0.8 | 1.6 |  | 5.5 (≈ 11.4 µM) |  |  | 0.2 |  |  |  |
| 49 (≈ 106 µM) |  |  | 52 (≈ 112 µM) |  | O=c1cc(-c2ccc(O)c(O)c2)oc2c(O)c(O[C@@H]3O[C@H](CO)[C@@H](O)[C@H](O)[C@H]3O)cc(O)c12 [Hypolaetin-7-O-glucoside (7), hypolaetin-7-O-glucoside] |  | 19 (≈ 40.9 µM) | 0.4 | 3.2 |  | 5.7 (≈ 12.3 µM) |  |  | 0.4 |  |  |  |
| 16 (≈ 86.9 µM) | 3 (≈ 16.3 µM) | 2.1 | 8.5 (≈ 46.2 µM) |  | COC(=O)c1cc(O)c(O)c(O)c1 [Methyl gallate (2), methyl gallate] |  | 16 (≈ 86.9 µM) | 1.0 | 15 |  | 1.1 (≈ 5.97 µM) | > 100 | 7.8 | 1.9 | inhibited | 0.0025 (≈ 0.0136 µM) |  |
